Patent US20040146509A1, “Methods for improvement of lung function using TGF-beta inhibitors” (priority 2002, published 2004)

Tested on: bleomycin-induced lung fibrosis
Assay: Lung hydroxyproline content following bleomycin-induced lung fibrosis (14 days)
Format: in vivo, rat
Conditions: rats, bleomycin intratracheal day 0; day 1-14: Compound B 30 mg/kg oral three times a day, Triamcinolone 8 mg/kg i.p. every other day; versus bleo+saline; FIG. 8
Experimental: Male Sprague-Dawley rats weighing 225 to 250 were purchased from Charles River Laboratories, Inc. Rats were housed in groups of two in the animal facility provided with filtered air and constant temperature and humidity. All animal maintenance was in accordance with Scios' guidelines for animal welfare. The rats were allowed to acclimate to the new environment for one week before all treatment. A 12:12 hour light-dark cycle was maintained, and the animals had free access to ad libitum food and water.
Day 0: To induce pulmonary fibrosis, rats were intubated with 0.5 ml of saline or 0.5 ml of 1.0 unit/ml of bleomycin by intratracheal injection under anesthesia. The anesthetic solution used is a mixture of 0.4 ml of ketamine (100 mg/ml) and 0.25 ml of xylazine (20 mg/ml) at a dose of 1.3 ml/kg.
Group 2 & 3: Rats were weighed and orally dosed with 5 ml/kg of saline three times a day […]
To estimate the total amount of collagen in fibrotic lungs, the hydroxyproline content of the whole lung was measured in each group according to the method described by Woessner Biochim Biophys Acta. […]
Briefly, lungs were harvested and homogenized in 15 ml of 1×PBS with a Polytron homogenizer. […] The hydroxyproline content was the measured using the method of Woessner.
The data were analyzed using a one-way analysis of variance (ANOVA) with a Bonferroni's multiple comparisons post tests. […]

C[C@]12C=CC(=O)C=C1CC[C@H]1[C@@H]3C[C@@H](O)[C@](O)(C(=O)CO)[C@@]3(C)C[C@H](O)[C@@]12F [Triamcinolone]
lung hydroxyproline content: significantly reducing lung hydroxyproline content
